# Biological target: T1, oxytocin receptor (CHO-OTR/NFAT-β-Lactamase cells) (Homo sapiens, UniProt P30559)
# T1 construct: expressed in transfected cells; host or cells: CHO (CHO-OTR line carrying an NFAT-β-lactamase reporter)
# T1 sequence (P30559 1-389): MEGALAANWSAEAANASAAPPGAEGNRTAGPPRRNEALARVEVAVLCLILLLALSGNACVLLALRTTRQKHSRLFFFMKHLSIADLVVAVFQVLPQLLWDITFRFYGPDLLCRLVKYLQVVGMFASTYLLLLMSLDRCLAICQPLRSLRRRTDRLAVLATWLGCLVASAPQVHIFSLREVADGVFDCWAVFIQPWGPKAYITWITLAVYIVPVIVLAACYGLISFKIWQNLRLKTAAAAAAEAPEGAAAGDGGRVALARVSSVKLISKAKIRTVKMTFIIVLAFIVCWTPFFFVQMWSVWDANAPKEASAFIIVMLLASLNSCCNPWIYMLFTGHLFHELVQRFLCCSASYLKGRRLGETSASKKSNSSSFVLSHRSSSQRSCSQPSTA
# Experiment: Oxytocin Receptor Beta-Lactamase Assay
# Type: cell-based
# Conditions: oxytocin stimulation 4 hours, read-out: oxytocin antagonist activity, expressed as a Ki value
# Description: A suitable assay for determining the oxytocin antagonist activity of a compound is detailed herein below.
# Oxytocin Receptor Beta-Lactamase Assay
# Cells used are CHO-OTR/NFAT-β-Lactamase. The NFAT-β-lactamase expression construct was transfected into the CHO-OTR cell line and clonal populations were isolated via fluorescence activated cell sorting (FACS). An appropriate clone was selected to develop the assay.
# Recovery of cells—A vial of frozen cells is thawed rapidly in 37° C. water bath and the cell suspension transferred into a T225 flask with 50 ml of fresh growth medium and then incubated at 37° C., 5% CO2 in an incubator until the cells adhered to the flask Replace media with 50 ml of fresh growth media the following day.
# Culturing cells—CHO—OTR—NFAT-βLactamase cells were grown in growth medium. Cells were harvested when they reached 80-90% confluence removing the medium and washing with pre-warmed PBS. PBS was then removed and Trypsin/EDTA added (3 mls for T225 cm^2 flask) before incubating for 5 min in 37° C./5% CO2 incubator. When cells were detached, pre-warmed growth media was added (7 mls for T225 cm^2 flask) and the cells re-suspended and mixed gently by pipetting to achieve single cell suspension. […]
# Cells grown at 80-90% confluence were harvested and counted. […]
# Preparation of 1 ml of 6× Loading Buffer with Enhanced Loading Protocol (this requires scale-up according to number of plates to be screened) • 12 μl of solution A (1 mM CCF4-AM in Dry DMSO) was added to 60 μl of solution B (100 mg/ml Pluronic-F127 in DMSO+0.1% Acetic Acid) and vortexed. • The resulting solution was added to 925 μl of solution C (24% w/w PEG400, 18% TR40 v/v in water). • 75 μl of solution D was added (200 mM probenecid in 200 mM NaOH). • 10 μl of 6× Loading Buffer was added to all wells and incubated for 1.5 hrs-2 hrs at room temperature in the dark. • The plates were read using an LJL Analyst, Excitation 405 nm, Emission 450 nm and 530 nm, gain optimal, lagtime 0.40 μs integration, 4 flashes, bottom reading.
row,Ki [nM],Structure (SMILES)
1,12.9,"COc1ccc(-n2c(C)nnc2N2CCC3(CC2)COc2ccccc23)cn1 [Example 1, 1′-[4-(6-methoxypyridin-3-yl)-5-methyl-4H-1,2,4-triazol-3-yl]spiro[1-benzofuran-3,4′-piperidine]]"
2,11.5,"COCc1nnc(N2CCC3(CC2)OCc2cc(F)ccc23)n1-c1ccc(OC)nc1 [Example 6, 5-fluoro-1′-[5-(methoxymethyl)-4-(6-methoxypyridin-3-yl)-4H-1,2,4-triazol-3-yl]-3H-spiro[2-benzofuran-1,4′-piperidine]]"
3,10.2,"COCc1nnc(N2CCC3(CC2)OCc2ccccc23)n1-c1ccc(OC)nc1 [Example 17, 1′-[5-(methoxymethyl)-4-(6-methoxypyridin-3-yl)-4H-1,2,4-triazol-3-yl]-3H-spiro[2-benzofuran-1,4′-piperidine]]"
